Columns and labels:
Experiment in all cases: relative viability (nuclei count vs DMSO), 5 days (fraction); higher = more cells survive
Tosedostat + Olaparib = compound: CC(C)C[C@@H](C(=O)N[C@H](C(=O)OC1CCCC1)c1ccccc1)[C@H](O)C(=O)NO [Tosedostat] + O=C(c1cc(Cc2n[nH]c(=O)c3ccccc23)ccc1F)N1CCN(C(=O)C2CC2)CC1 [Olaparib] (partner 8 µM)
How it was run: (§1)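 Each reported value is a median over duplicate plates. It expresses relative viability: treated-well nuclei count divided by vehicle-well nuclei count. Lung cancer cell lines in 1536-well plates were dosed by pin tool a day after seeding, alone with one drug or with a fixed anchor-drug dose plus five library-drug doses (not always all listed) in √10 steps, and nuclei were counted after 5 days.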

[1] = compound: CC1=NN=C(O1)C2=NN=C(C=C2)N3CCC(CC3)OC4=C(C=CC(=C4)F)Cl + O=C(CCCCCCC(=O)Nc1ccccc1)NO [Vorinostat] (partner 1 µM)
How it was run: as §1

Tosedostat + Pemetrexed = compound: CC(C)C[C@@H](C(=O)N[C@H](C(=O)OC1CCCC1)c1ccccc1)[C@H](O)C(=O)NO [Tosedostat] + Nc1nc2[nH]cc(CCc3ccc(C(=O)N[C@@H](CCC(=O)O)C(=O)O)cc3)c2c(=O)[nH]1 [Pemetrexed] (partner 0.2 µM)
How it was run: as §1

[2] = compound: CC1=NN=C(O1)C2=NN=C(C=C2)N3CCC(CC3)OC4=C(C=CC(=C4)F)Cl + CS(=O)(=O)N1CCN(Cc2cc3nc(-c4cccc5[nH]ncc45)nc(N4CCOCC4)c3s2)CC1 [Pictilisib] (partner 1 µM)
How it was run: as §1

For HCC-827, the relative viability (Tosedostat + Olaparib; first compound 0.02 µM) was 0.543, the relative viability (Tosedostat + Olaparib; first compound 0.06325 µM) was 0.526 and the relative viability (Tosedostat + Olaparib; first compound 0.2 µM) was 0.602. For the same cell line, the relative viability (Tosedostat + Olaparib; first compound 0.6325 µM) was 0.317, the relative viability (Tosedostat + Olaparib; first compound 2 µM) was 0.506 and the relative viability ([1]; first compound 0.253 µM) was 0.382. For the same cell line, the relative viability ([1]; first compound 0.8 µM) was 0.207, the relative viability ([1]; first compound 2.53 µM) was 0.322 and the relative viability ([1]; first compound 8 µM) was 0.377. It also gave a relative viability (Tosedostat + Pemetrexed; first compound 0.02 µM) of 0.24, a relative viability (Tosedostat + Pemetrexed; first compound 0.06325 µM) of 0.265 and a relative viability (Tosedostat + Pemetrexed; first compound 0.2 µM) of 0.255. For the same cell line, the relative viability (Tosedostat + Pemetrexed; first compound 0.6325 µM) was 0.318, the relative viability (Tosedostat + Pemetrexed; first compound 2 µM) was 0.353 and the relative viability ([2]; first compound 0.253 µM) was 0.544. For the same cell line, the relative viability ([2]; first compound 0.8 µM) was 0.571, the relative viability ([2]; first compound 2.53 µM) was 0.609 and the relative viability ([2]; first compound 8 µM) was 0.605.

HOP-62 showed a relative viability (Tosedostat + Olaparib; first compound 0.02 µM) of 0.638, a relative viability (Tosedostat + Olaparib; first compound 0.06325 µM) of 0.346 and a relative viability (Tosedostat + Olaparib; first compound 0.2 µM) of 0.321. The relative viability (Tosedostat + Olaparib; first compound 0.6325 µM) was 0.245, the relative viability (Tosedostat + Olaparib; first compound 2 µM) was 0.363 and the relative viability ([1]; first compound 0.253 µM) was 0.543. It also gave a relative viability ([1]; first compound 0.8 µM) of 0.243, a relative viability ([1]; first compound 2.53 µM) of 0.287 and a relative viability ([1]; first compound 8 µM) of 0.203. It also gave a relative viability (Tosedostat + Pemetrexed; first compound 0.02 µM) of 0.34, a relative viability (Tosedostat + Pemetrexed; first compound 0.06325 µM) of 0.328 and a relative viability (Tosedostat + Pemetrexed; first compound 0.2 µM) of 0.38. The relative viability (Tosedostat + Pemetrexed; first compound 0.6325 µM) was 0.431, the relative viability (Tosedostat + Pemetrexed; first compound 2 µM) was 0.472 and the relative viability ([2]; first compound 0.253 µM) was 0.652. For the same cell line, the relative viability ([2]; first compound 2.53 µM) was 0.645 and the relative viability ([2]; first compound 8 µM) was 0.331.

With IA-LM the relative viability (Tosedostat + Olaparib; first compound 0.02 µM) was 0.839, the relative viability (Tosedostat + Olaparib; first compound 0.06325 µM) was 0.869 and the relative viability (Tosedostat + Olaparib; first compound 0.2 µM) was 0.655. For the same cell line, the relative viability (Tosedostat + Olaparib; first compound 0.6325 µM) was 0.814, the relative viability (Tosedostat + Olaparib; first compound 2 µM) was 0.662 and the relative viability ([1]; first compound 0.253 µM) was 0.402. For the same cell line, the relative viability ([1]; first compound 0.8 µM) was 0.296, the relative viability ([1]; first compound 2.53 µM) was 0.435 and the relative viability ([1]; first compound 8 µM) was 0.364. The relative viability ([2]; first compound 0.253 µM) was 0.173, the relative viability ([2]; first compound 0.8 µM) was 0.195 and the relative viability ([2]; first compound 2.53 µM) was 0.203. For the same cell line, the relative viability ([2]; first compound 8 µM) was 0.187.

With LC-2-ad the relative viability (Tosedostat + Olaparib; first compound 0.02 µM) was 0.774, the relative viability (Tosedostat + Olaparib; first compound 0.06325 µM) was 0.707 and the relative viability (Tosedostat + Olaparib; first compound 0.2 µM) was 0.714. For the same cell line, the relative viability (Tosedostat + Olaparib; first compound 0.6325 µM) was 0.638, the relative viability (Tosedostat + Olaparib; first compound 2 µM) was 0.695 and the relative viability ([1]; first compound 0.253 µM) was 0.321. It also gave a relative viability ([1]; first compound 0.8 µM) of 0.254, a relative viability ([1]; first compound 2.53 µM) of 0.322 and a relative viability ([1]; first compound 8 µM) of 0.284. It also gave a relative viability (Tosedostat + Pemetrexed; first compound 0.02 µM) of 0.299, a relative viability (Tosedostat + Pemetrexed; first compound 0.06325 µM) of 0.303 and a relative viability (Tosedostat + Pemetrexed; first compound 0.2 µM) of 0.289. It also gave a relative viability (Tosedostat + Pemetrexed; first compound 0.6325 µM) of 0.277, a relative viability (Tosedostat + Pemetrexed; first compound 2 µM) of 0.251 and a relative viability ([2]; first compound 0.253 µM) of 0.423. For the same cell line, the relative viability ([2]; first compound 0.8 µM) was 0.416, the relative viability ([2]; first compound 2.53 µM) was 0.4 and the relative viability ([2]; first compound 8 µM) was 0.386.

LCLC-97TM1 was tested, and the relative viability (Tosedostat + Olaparib; first compound 0.02 µM) was 0.335, the relative viability (Tosedostat + Olaparib; first compound 0.06325 µM) was 0.436 and the relative viability (Tosedostat + Olaparib; first compound 0.2 µM) was 0.309. For the same cell line, the relative viability (Tosedostat + Olaparib; first compound 0.6325 µM) was 0.236, the relative viability (Tosedostat + Olaparib; first compound 2 µM) was 0.251 and the relative viability ([1]; first compound 0.253 µM) was 0.649. For the same cell line, the relative viability ([1]; first compound 2.53 µM) was 0.522, the relative viability ([1]; first compound 8 µM) was 0.573 and the relative viability (Tosedostat + Pemetrexed; first compound 0.02 µM) was 0.176. The relative viability (Tosedostat + Pemetrexed; first compound 0.06325 µM) was 0.175, the relative viability (Tosedostat + Pemetrexed; first compound 0.2 µM) was 0.192 and the relative viability (Tosedostat + Pemetrexed; first compound 0.6325 µM) was 0.203. For the same cell line, the relative viability (Tosedostat + Pemetrexed; first compound 2 µM) was 0.254, the relative viability ([2]; first compound 0.253 µM) was 0.234 and the relative viability ([2]; first compound 2.53 µM) was 0.213. For the same cell line, the relative viability ([2]; first compound 8 µM) was 0.239.

With LCLC-103H the relative viability (Tosedostat + Olaparib; first compound 0.02 µM) was 0.763, the relative viability (Tosedostat + Olaparib; first compound 0.06325 µM) was 0.773 and the relative viability (Tosedostat + Olaparib; first compound 0.2 µM) was 0.777. It also gave a relative viability (Tosedostat + Olaparib; first compound 0.6325 µM) of 0.816, a relative viability (Tosedostat + Olaparib; first compound 2 µM) of 0.772 and a relative viability ([1]; first compound 0.253 µM) of 0.503. The relative viability ([1]; first compound 0.8 µM) was 0.478, the relative viability ([1]; first compound 2.53 µM) was 0.531 and the relative viability ([1]; first compound 8 µM) was 0.475. The relative viability (Tosedostat + Pemetrexed; first compound 0.02 µM) was 0.507, the relative viability (Tosedostat + Pemetrexed; first compound 0.06325 µM) was 0.522 and the relative viability (Tosedostat + Pemetrexed; first compound 0.2 µM) was 0.533. It also gave a relative viability (Tosedostat + Pemetrexed; first compound 0.6325 µM) of 0.494, a relative viability (Tosedostat + Pemetrexed; first compound 2 µM) of 0.57 and a relative viability ([2]; first compound 0.253 µM) of 0.556. The relative viability ([2]; first compound 0.8 µM) was 0.479, the relative viability ([2]; first compound 2.53 µM) was 0.567 and the relative viability ([2]; first compound 8 µM) was 0.473.

With LK-2 the relative viability (Tosedostat + Olaparib; first compound 0.02 µM) was 0.615, the relative viability (Tosedostat + Olaparib; first compound 0.06325 µM) was 0.798 and the relative viability (Tosedostat + Olaparib; first compound 0.2 µM) was 0.583. It also gave a relative viability (Tosedostat + Olaparib; first compound 0.6325 µM) of 0.592, a relative viability (Tosedostat + Olaparib; first compound 2 µM) of 0.437 and a relative viability ([1]; first compound 0.253 µM) of 0.352. It also gave a relative viability ([1]; first compound 0.8 µM) of 0.256, a relative viability ([1]; first compound 2.53 µM) of 0.291 and a relative viability ([1]; first compound 8 µM) of 0.295. It also gave a relative viability (Tosedostat + Pemetrexed; first compound 0.02 µM) of 0.244, a relative viability (Tosedostat + Pemetrexed; first compound 0.06325 µM) of 0.249 and a relative viability (Tosedostat + Pemetrexed; first compound 0.2 µM) of 0.348. It also gave a relative viability (Tosedostat + Pemetrexed; first compound 0.6325 µM) of 0.274, a relative viability (Tosedostat + Pemetrexed; first compound 2 µM) of 0.374 and a relative viability ([2]; first compound 0.253 µM) of 0.651. It also gave a relative viability ([2]; first compound 0.8 µM) of 0.716, a relative viability ([2]; first compound 2.53 µM) of 0.869 and a relative viability ([2]; first compound 8 µM) of 0.751.

LOU-NH91 was tested, and the relative viability (Tosedostat + Olaparib; first compound 0.02 µM) was 0.948, the relative viability (Tosedostat + Olaparib; first compound 0.06325 µM) was 0.901 and the relative viability (Tosedostat + Olaparib; first compound 0.2 µM) was 0.893. The relative viability (Tosedostat + Olaparib; first compound 0.6325 µM) was 0.79, the relative viability (Tosedostat + Olaparib; first compound 2 µM) was 0.768 and the relative viability ([1]; first compound 0.8 µM) was 0.853. The relative viability ([1]; first compound 2.53 µM) was 0.807, the relative viability ([1]; first compound 8 µM) was 0.922 and the relative viability (Tosedostat + Pemetrexed; first compound 0.02 µM) was 0.394. For the same cell line, the relative viability (Tosedostat + Pemetrexed; first compound 0.06325 µM) was 0.478, the relative viability (Tosedostat + Pemetrexed; first compound 0.2 µM) was 0.447 and the relative viability (Tosedostat + Pemetrexed; first compound 0.6325 µM) was 0.487. For the same cell line, the relative viability (Tosedostat + Pemetrexed; first compound 2 µM) was 0.444, the relative viability ([2]; first compound 0.8 µM) was 0.519 and the relative viability ([2]; first compound 2.53 µM) was 0.55. It also gave a relative viability ([2]; first compound 8 µM) of 0.499.

LU99A was tested, and the relative viability (Tosedostat + Olaparib; first compound 0.02 µM) was 0.278, the relative viability (Tosedostat + Olaparib; first compound 0.06325 µM) was 0.216 and the relative viability (Tosedostat + Olaparib; first compound 0.2 µM) was 0.211. For the same cell line, the relative viability (Tosedostat + Olaparib; first compound 0.6325 µM) was 0.171, the relative viability (Tosedostat + Olaparib; first compound 2 µM) was 0.19 and the relative viability ([1]; first compound 0.253 µM) was 0.549. The relative viability ([1]; first compound 0.8 µM) was 0.456, the relative viability ([1]; first compound 2.53 µM) was 0.534 and the relative viability ([1]; first compound 8 µM) was 0.563. It also gave a relative viability (Tosedostat + Pemetrexed; first compound 0.02 µM) of 0.172, a relative viability (Tosedostat + Pemetrexed; first compound 0.06325 µM) of 0.165 and a relative viability (Tosedostat + Pemetrexed; first compound 0.2 µM) of 0.195. It also gave a relative viability (Tosedostat + Pemetrexed; first compound 0.6325 µM) of 0.212, a relative viability (Tosedostat + Pemetrexed; first compound 2 µM) of 0.191 and a relative viability ([2]; first compound 0.253 µM) of 0.303. For the same cell line, the relative viability ([2]; first compound 0.8 µM) was 0.327, the relative viability ([2]; first compound 2.53 µM) was 0.304 and the relative viability ([2]; first compound 8 µM) was 0.34.

Source: the supplement of paper PMC10307832
